For one compound, inhibition, inhibition model and AP-G formation results are on record in article PMC4844176 (Xenobiotica; the fate of foreign compounds in biological …, 2015).

Data set [1] concerns the target T1, UGT2B7 (Homo sapiens, UniProt P16662).
T1 sequence (P16662 24-529): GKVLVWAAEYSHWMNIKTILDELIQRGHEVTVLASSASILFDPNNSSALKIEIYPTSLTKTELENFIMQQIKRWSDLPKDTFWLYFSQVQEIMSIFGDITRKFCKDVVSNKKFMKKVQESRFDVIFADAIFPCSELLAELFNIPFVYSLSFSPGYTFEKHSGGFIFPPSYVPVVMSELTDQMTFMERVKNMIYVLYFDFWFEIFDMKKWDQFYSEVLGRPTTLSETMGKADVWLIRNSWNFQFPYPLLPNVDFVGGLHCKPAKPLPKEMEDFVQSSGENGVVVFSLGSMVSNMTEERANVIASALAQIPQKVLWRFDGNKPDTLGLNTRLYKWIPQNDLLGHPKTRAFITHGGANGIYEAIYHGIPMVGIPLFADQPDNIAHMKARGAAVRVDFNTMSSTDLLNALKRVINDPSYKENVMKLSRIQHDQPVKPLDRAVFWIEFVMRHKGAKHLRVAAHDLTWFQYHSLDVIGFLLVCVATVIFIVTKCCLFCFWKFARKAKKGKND
Description: Inhibition by aprepitant of UGT2B7. Type of data set: in vitro ADME. To be noted: UGT2B7 enzyme, pH 7.5, probe 4-MU.

The target of data set [2] is T1, UGT2B7. Nature of the data set: Ki determination of aprepitant on 4-MU-G, M-6-G and AZT-G formation in UGT2B7.
In data set [3] the target is T2, UGT1A9 (Homo sapiens, UniProt O60656).
T2 sequence (O60656 26-530): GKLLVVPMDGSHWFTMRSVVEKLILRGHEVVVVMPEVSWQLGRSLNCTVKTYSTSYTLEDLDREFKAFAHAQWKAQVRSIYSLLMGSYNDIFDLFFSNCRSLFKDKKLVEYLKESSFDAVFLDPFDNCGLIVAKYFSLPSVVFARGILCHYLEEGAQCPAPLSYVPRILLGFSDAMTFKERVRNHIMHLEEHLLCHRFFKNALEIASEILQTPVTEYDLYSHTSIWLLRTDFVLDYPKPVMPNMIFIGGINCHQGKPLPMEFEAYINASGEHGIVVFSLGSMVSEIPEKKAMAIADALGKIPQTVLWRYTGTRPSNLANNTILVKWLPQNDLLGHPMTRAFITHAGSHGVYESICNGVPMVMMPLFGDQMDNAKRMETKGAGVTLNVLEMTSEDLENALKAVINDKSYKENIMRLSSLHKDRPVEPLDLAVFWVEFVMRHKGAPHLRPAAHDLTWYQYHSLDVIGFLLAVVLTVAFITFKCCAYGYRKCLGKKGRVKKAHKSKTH
Nature of the data set: Screening for aprepitant glucuronidation, UGT1A9 Supersomes. Type of data set: in vitro ADME. To be noted: UGT1A9, 5 and 250 µM aprepitant.

For data set [4], the target named is T3, UGT1A10 (Homo sapiens, UniProt Q9HAW8).
T3 sequence (Q9HAW8 26-530): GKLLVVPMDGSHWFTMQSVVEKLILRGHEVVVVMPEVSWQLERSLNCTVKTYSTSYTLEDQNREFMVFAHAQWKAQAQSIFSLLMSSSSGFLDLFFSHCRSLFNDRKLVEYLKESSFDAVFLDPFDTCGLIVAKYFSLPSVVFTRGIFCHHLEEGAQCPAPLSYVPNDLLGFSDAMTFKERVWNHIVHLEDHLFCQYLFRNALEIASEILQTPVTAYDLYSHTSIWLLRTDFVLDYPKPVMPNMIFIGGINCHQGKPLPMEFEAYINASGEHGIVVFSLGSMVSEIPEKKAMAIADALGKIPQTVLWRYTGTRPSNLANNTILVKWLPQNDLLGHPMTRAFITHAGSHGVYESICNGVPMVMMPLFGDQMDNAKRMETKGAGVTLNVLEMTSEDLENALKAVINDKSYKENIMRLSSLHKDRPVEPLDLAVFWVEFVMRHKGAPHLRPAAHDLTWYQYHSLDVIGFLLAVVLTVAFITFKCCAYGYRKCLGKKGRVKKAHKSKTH
Nature of the data set: Screening for aprepitant glucuronidation, UGT1A10 Supersomes. It is filed as in vitro ADME. The settings on record: UGT1A10, 5 and 250 µM aprepitant.

For data set [5], the target named is T4, UGT1A6 (Homo sapiens, UniProt P19224).
T4 sequence (P19224 27-532): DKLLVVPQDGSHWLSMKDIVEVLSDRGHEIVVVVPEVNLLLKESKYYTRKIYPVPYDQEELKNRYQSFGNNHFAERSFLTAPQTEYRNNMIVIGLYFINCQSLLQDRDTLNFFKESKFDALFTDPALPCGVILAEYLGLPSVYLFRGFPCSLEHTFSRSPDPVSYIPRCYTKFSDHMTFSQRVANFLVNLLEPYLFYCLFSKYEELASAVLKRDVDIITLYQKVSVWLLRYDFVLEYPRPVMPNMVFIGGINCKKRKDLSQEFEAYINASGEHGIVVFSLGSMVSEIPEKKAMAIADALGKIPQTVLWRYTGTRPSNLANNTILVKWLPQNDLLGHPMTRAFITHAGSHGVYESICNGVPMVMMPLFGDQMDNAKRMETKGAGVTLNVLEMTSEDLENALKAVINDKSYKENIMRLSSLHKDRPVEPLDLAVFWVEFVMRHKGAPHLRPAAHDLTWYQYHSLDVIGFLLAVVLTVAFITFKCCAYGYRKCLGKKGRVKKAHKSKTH
Nature of the data set: Inhibition by aprepitant of UGT1A6. It is filed as in vitro ADME. To be noted: UGT1A6 enzyme, pH 7.5, probe 4-MU.

Turning to `C[C@@H](O[C@H]1OCCN(Cc2n[nH]c(=O)[nH]2)[C@H]1c1ccc(F)cc1)c1cc(C(F)(F)F)cc(C(F)(F)F)c1` [aprepitant, Aprepitant], in data set [1], the inhibition (commonly the percentage by which the read-out fell short of the control) at 1 µM is ~17%. Further, the inhibition at 10 µM in data set [1] was determined as 70%; in data set [5], 19%. Moreover, the inhibition model result in data set [2] (UGT2B7, substrate 4-MU) is “competitive inhibition model”; in data set [2] (UGT2B7, substrate AZT), “competitive inhibition model”; in data set [2] (UGT2B7, substrate morphine) it was “noncompetitive model”. Moreover, the AP-G formation entry in data set [3] and in data set [4] was “not detected” throughout.
